Test results published in PubChem BioAssay (NCI).
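Method: 48-hour compound exposure of cells in 96-well plates, five concentrations, linear interpolation of endpoints. TGI: total growth inhibition.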

Key:
Assay in all cases: inhibition of tumour cell growth, NCI panel, 48 h
[1] = test system: 786-0 renal
[2] = test system: A549 NSCLC
[3] = test system: BT-549 breast
[4] = test system: CAKI-1 renal
[5] = test system: CCRF-CEM leukemia
[6] = test system: COLO 205 colon
[7] = test system: DU-145 prostate
[8] = test system: EKVX NSCLC
[9] = test system: HCC-2998 colon
[10] = test system: HCT-116 colon
[11] = test system: HCT-15 colon
[12] = test system: HL-60(TB) leukemia
[13] = test system: HOP-62 NSCLC
[14] = test system: HOP-92 NSCLC
[15] = test system: HS 578T breast
[16] = test system: HT29 colon
[17] = test system: IGROV1 ovarian
[18] = test system: K-562 leukemia
[19] = test system: KM12 colon
[20] = test system: LOX IMVI melanoma
[21] = test system: M14 melanoma
[22] = test system: MALME-3M melanoma
[23] = test system: MDA-MB-231 breast
[24] = test system: MDA-MB-435
[25] = test system: MDA-N
[26] = test system: MOLT-4 leukemia
[27] = test system: NCI-H226 lung
[28] = test system: NCI-H23 lung
[29] = test system: NCI-H460 lung
[30] = test system: NCI-H522 lung
[31] = test system: NCI/ADR-RES ovarian
[32] = test system: OVCAR-3 ovarian
[33] = test system: OVCAR-4 ovarian
[34] = test system: OVCAR-5 ovarian
[35] = test system: OVCAR-8 ovarian
[36] = test system: RPMI-8226 leukemia
[37] = test system: RXF 393 renal
[38] = test system: SF-268 CNS
[39] = test system: SF-295 CNS
[40] = test system: SF-539 CNS
[41] = test system: SK-MEL-2 melanoma
[42] = test system: SK-MEL-28 melanoma
[43] = test system: SK-MEL-5 melanoma
[44] = test system: SK-OV-3 ovarian
[45] = test system: SN12C renal
[46] = test system: SNB-19 CNS
[47] = test system: SNB-75 CNS
[48] = test system: SR leukemia
[49] = test system: SW-620 colon
[50] = test system: T-47D breast
[51] = test system: TK-10 renal
[52] = test system: U251 CNS
[53] = test system: UACC-257 melanoma
[54] = test system: UO-31 renal
[55] = test system: ACHN renal
[56] = test system: MCF7 breast
[57] = test system: PC-3 prostate
[58] = test system: UACC-62 melanoma

**Q.** What does the source list for CCN(CC)S(=O)(=O)c1ccc2nc(NC(=O)OC)[nH]c2c1?
**A.** TGI [1]: > 100 µM; TGI [2]: > 100 µM; TGI [3]: > 100 µM; TGI [4]: > 100 µM; TGI [5]: > 100 µM; TGI [6]: > 100 µM; TGI [7]: > 100 µM; TGI [8]: > 100 µM; TGI [9]: > 100 µM; TGI [10]: > 100 µM; TGI [11]: > 100 µM; TGI [12]: 63.4 µM; TGI [13]: > 100 µM; TGI [14]: > 100 µM; TGI [15]: > 100 µM; TGI [16]: > 100 µM; TGI [17]: > 100 µM; TGI [18]: > 100 µM; TGI [19]: > 100 µM; TGI [20]: > 100 µM; TGI [21]: > 100 µM; TGI [22]: > 100 µM; TGI [23]: > 100 µM; TGI [24]: 36.8 µM; TGI [25]: 65.9 µM; TGI [26]: 61.7 µM; TGI [27]: > 100 µM; TGI [28]: > 100 µM; TGI [29]: > 100 µM; TGI [30]: > 100 µM; TGI [31]: > 100 µM; TGI [32]: > 100 µM; TGI [33]: > 100 µM; TGI [34]: > 100 µM; TGI [35]: > 100 µM; TGI [36]: 47.1 µM; TGI [37]: > 100 µM; TGI [38]: > 100 µM; TGI [39]: > 100 µM; TGI [40]: 74.3 µM; TGI [41]: > 100 µM; TGI [42]: > 100 µM; TGI [43]: > 100 µM; TGI [44]: > 100 µM; TGI [45]: > 100 µM; TGI [46]: > 100 µM; TGI [47]: > 100 µM; TGI [48]: 83.9 µM; TGI [49]: > 100 µM; TGI [50]: > 100 µM; TGI [51]: > 100 µM; TGI [52]: > 100 µM; TGI [53]: > 100 µM; TGI [54]: > 100 µM

**Q.** Which results are given for CC(C1CCCC1=O)C1CCCC1=O (stereo not drawn)?
**A.** TGI [1]: > 100 µM; TGI [2]: > 100 µM; TGI [55]: > 100 µM; TGI [3]: > 100 µM; TGI [4]: > 100 µM; TGI [5]: > 100 µM; TGI [6]: > 100 µM; TGI [7]: > 100 µM; TGI [8]: > 100 µM; TGI [9]: > 100 µM; TGI [10]: > 100 µM; TGI [11]: > 100 µM; TGI [12]: > 100 µM; TGI [13]: > 100 µM; TGI [15]: > 100 µM; TGI [16]: > 100 µM; TGI [17]: > 100 µM; TGI [18]: > 100 µM; TGI [19]: > 100 µM; TGI [20]: > 100 µM; TGI [21]: > 100 µM; TGI [22]: > 100 µM; TGI [56]: > 100 µM; TGI [23]: > 100 µM; TGI [25]: > 100 µM; TGI [26]: > 100 µM; TGI [27]: > 100 µM; TGI [28]: > 100 µM; TGI [29]: > 100 µM; TGI [30]: > 100 µM; TGI [31]: > 100 µM; TGI [33]: > 100 µM; TGI [34]: > 100 µM; TGI [35]: > 100 µM; TGI [57]: > 100 µM; TGI [37]: > 100 µM; TGI [38]: > 100 µM; TGI [39]: > 100 µM; TGI [40]: > 100 µM; TGI [41]: > 100 µM; TGI [42]: > 100 µM; TGI [43]: > 100 µM; TGI [44]: > 100 µM; TGI [45]: > 100 µM; TGI [46]: > 100 µM; TGI [47]: > 100 µM; TGI [48]: > 100 µM; TGI [49]: > 100 µM; TGI [50]: > 100 µM; TGI [51]: > 100 µM; TGI [52]: > 100 µM; TGI [53]: > 100 µM; TGI [58]: > 100 µM; TGI [54]: > 100 µM
